One assay deals with iFA model. In words: Fibrotic marker, cytokine and repair modulator expression in the iFA model (qPCR, immunoblotting, luminex, immunofluorescence). It is filed as cell-based, human. Here is the method:
The Milliplex human cytokine/chemokine Panel IV, human TIMP Panel 2, and human TGFβ 1,2,3 magnetic bead kits (EMD Millipore) were used per manufacturer's instructions. Prior to plating, all samples tested for human TGFβ only were activated and neutralized with 1.0 N HCl and 1.0 N NaOH, respectively. Briefly, 25 μl of undiluted or treated cell culture supernatant samples were mixed with 25 μl of magnetic beads and allowed to incubate overnight at 4° C. while shaking. After washing the plates with wash buffer in a Biotek ELx405 washer, 25 μl of biotinylated detection antibody was added and incubated for 1 hour at room temperature while shaking. 25 μl of streptavidin-phycoerythrin conjugate was then added to the reaction mixture and incubated for another 30 minutes at room temperature while shaking. Following additional washes, beads were resuspended in sheath fluid, and fluorescence was quantified using a Luminex 200 instrument. Similarly, a custom magnetic Luminex assay kit of select analytes (R&D Systems) was used per manufacturer's instructions. Cell culture supernatants were prepared with a 2-fold dilution. 50 μl of diluted sample were added to 50 μl of provided micro-particle cocktail and incubated for 2 hours at room temperature while shaking. After washing with wash buffer, 50 μl of biotin antibody cocktail was added and incubated for 1 hour at room temperature while shaking. Following additional washes, 50 μl of diluted Streptavidin-PE was then added for incubation for 30 minutes at room temperature while shaking. The plate was then washed again and the micro-particles resuspended in 100 μl wash buffer. After an additional 2-minute incubation while shaking, the data was acquired using a Luminex 200 instrument.
In-vitro cultures of PF and cells in the iFA model were washed once with PBS and total RNA from the samples were extracted using the RNeasy Mini Kit (Qiagen) according to the manufacturer's instructions. For the lung slice cultures (LSC), tissues were snap-frozen after treatment and stored at −80° C. until RNA isolation. Lung slices were homogenized using a handheld homogenizer and passing the homogenate through a Qiashredder (Qiagen). Total RNA from the LSC and cells from the disease model were extracted using the RNeasy Mini Kit (Qiagen) according to the manufacturer's instructions. The RNA concentrations were measured on a NanoDrop ND-1000 spectrophotometer. Single-stranded cDNA was synthesized from 200 ng of total RNA using Superscript IV and random hexamer primers (Invitrogen) in a volume of 20 μl. cDNA was then used for qRT-PCR analysis. PCR reactions were performed using Taqman Gene Expression Assay mix (Applied Biosystems) according to the manufacturer's instructions.
qRT-PCR reactions were performed using the StepOnePlus (Applied Biosystems). Relative gene expression was calculated using the 2^−ΔΔCt method, with 18S Cat. #4331182 (Invitrogen) as housekeeping gene. For the RT^2qPCR arrays, cDNA from DMSO and AA5 treated iFA and was added to the RT^2 qPCR iTaq Universal SYBR green Master Mix (Biorad). 20 μl of the experimental cocktail was added to each well of the Fibrosis PCR (Qiagen). Real-Time PCR was performed on the StepOnePlus qPCR system (Applied Biosystems) using SYBR green detection according to the manufacturer's recommendations. All data from the PCR was collected and analyzed by SA Bioscience's PCR Array Data Analysis Web Portal.
Cells grown on coverslips were fixed in 4% paraformaldehyde (PFA) for 10 min at room temperature and washed three times with TBS buffer supplemented with 0.1% Tween 20 (TBST). Lung samples were fixed overnight in 4% PFA at room temperature, washed 3 times in PBS, dehydrated and then infiltrated and embedded with wax. Five-micron sections were collected on glass slides, deparaffinized and rehydrated. Heat-induced epitope retrieval was performed using 1 mM EDTA in a microwave. […]
(In qPCR the cycle at which signal appears reflects the starting amount.)

For another assay, the system named is HMGB1. In words: HMGB1 (ELISA, IF) in the iFA model. It is filed as cell-based, human. Here is the method:
Conditioned media at different time points of progression of the phenotype, and on prevention and resolution drug treatments were collected and quantification of protein was performed using the IBL man HMGB1 ELISA kit or LSBio NPTX1 ELISA kits per manufacturer's instructions. 10 μl of each supernatant sample was added to anti-HMGB1 polyclonal antibody-coated plate and incubated for 20 hours at 37° C. All liquid was then removed and the plate manually washed 5 times with wash buffer. 100 μl of enzyme conjugate was then added and incubated for 2 hours at room temperature. After washing again, color solution was added at 100 μl per well and incubated for 30 minutes at room temperature. Following an additional five washes, the plate was incubated with 90 μl of TMB substrate for another 15 minutes at 37° C. in the dark. The reaction was then stopped by addition 100 μl of stop solution. Absorbance was measured at 450 nm using a SpectraMAX Plate Reader. Data was analyzed using SoftMax Pro software.
Cells grown on coverslips were fixed in 4% paraformaldehyde (PFA) for 10 min at room temperature and washed three times with TBS buffer supplemented with 0.1% Tween 20 (TBST). Lung samples were fixed overnight in 4% PFA at room temperature, washed 3 times in PBS, dehydrated and then infiltrated and embedded with wax. Five-micron sections were collected on glass slides, deparaffinized and rehydrated. […]
A general note: ELISA stands for enzyme-linked immunosorbent assay.

`Cc1c(C(=O)Nc2nc3ccccc3s2)sc2nc3cc4c(cc3cc12)OCO4` [AA5]: the “Secreted levels of acute-phase response cytokines IL-6, IL-8 and IFNα” value with iFA model (AA5-prevention and AA5-resolution, luminex) is “increase”. In addition, the PTX3 protein result in the assay on iFA model (AA5-prevention and AA5-resolution, over time) is “progressively increasing amounts”. Also, in the assay on iFA model (AA5 treated iFA model), the “Acute-phase signaling secondary cytokines MCP-3, VEGF, CSF3 and GRO” value was “increase”. The “Gene expression of fibrotic markers α-SMA, Collagen I, TIMP-3 and POSTN” value in the assay on iFA model (AA5 treatment, confirmed by immunoblotting, luminex, immunofluorescence) is “down-regulation”. Besides, the “Modulators of tissue repair PTX3 and CD163L1” value in the assay on iFA model (within 24 hours of AA5-resolution treatment) is listed as “upregulation”. The “Cytoplasmic HMGB1 (IF staining)” value in the assay on HMGB1 (AA5-prevention and AA5-resolution vs DMSO) is listed as “absence or significantly reduced cytoplasmic HMGB1”. Besides, the “Secreted levels of HMGB1” value in the assay on HMGB1 (iFA model, AA5p and AA5r vs DMSO) is “attenuated”.

The record behind these values is patent US20200352918A1, “COMPOUNDS AND METHODS FOR TREATING OR PREVENTING FIBROSIS” (priority 2019, published 2020).
